Results published in US20200216496A1, “Antibacterial Compounds Produced by the Microorganism Strain Corallococcus Coralloides ST201330 (DSM 24989)” (Sanofi, priority 2017, published 2020).
*1 amine or outer side, *2 acyl side, *3 side chain or, on linkers, in order; H or OH if unused. Where a SMILES comes first, the peptide text is derived from it. [ ]: non-standard residue; d: D form. The star is where a group is joined. ξ: configuration not given here. X2 = Cn1cncc1C(O)C(N[*:1])C(=O)[*:2]; X3 = COC(CN[*:1])C(O)C(O)C(=O)[*:2]; ξVal(3-OH) = CC(C)(O)C(N)C(=O)O; NMeF = CN[CH](Cc1ccccc1)C(=O)O; X4 = O=C(C(O)N[*:1])[*:2]; X1 = CC(O)C(O)C(=O)*

What was measured:
E. coli strain ATCC35218 = assay type: cell-based, Escherichia coli
Protocol: The present in vitro test identifies molecules having antimicrobial activity on the microorganisms by quantification of the culture optical density. Optical density compared to a vial with the same medium non inoculated by bacteria is an indicator of the bacterial growth. Minimal inhibitory concentrations were evaluated following the CLSI and EUCAST guidelines. Bacterial inoculum were prepared by overnight culture in cation-adjusted Mueller-Hinton II (MHII) medium from colonies isolated from colonies on agar plates, then diluted to evaluate the colony forming units (cfu) using the McFarland turbidity standard. A 96 well plate was inoculated with 100 μl of 5.105 cfu/ml in MHII, and test compounds prepared by serial dilution at 100× concentration in DMSO. After a 20-22 h incubation, optical density was evaluated on a microplate reader and the MIC endpoint was determined as the lowest concentration of antibiotic at which there is no visible growth in duplicates, meaning that optical density differs no more from negative controls than 10% of the difference in optical density between negative controls (medium, no bacteria) and positive control (bacteria in medium, no antibiotics).

[1] = test system: Escherichia coli ATCC 35218; test: Antibacterial activity against Escherichia coli: inhibitory activity (IC80), broth microdilution, absorbance at 590 nm; assay type: cell-based; conditions: Mueller Hinton broth, 37° C., 20 hours, growth inhibited by 80%
Protocol: A stock solution of 1000 μg/ml of the test compound was prepared in methanol. The test strain (Escherichia coli ATCC 35218) was stored at −80° C. The inoculum was prepared from a fresh liquid preculture. The preculture was prepared from a bead of the material stored at −80° C. and 30 ml of nutrient medium (Mueller Hinton broth, Difco) and incubated at 37° C. and 180 rpm for 18 hours. The inoculum was adjusted to an optical density (OD) of 0.2 at a wavelength of 600 nm. For this, the inoculum was adjusted to a value of 10^8 CFU/ml (CFU: colony forming units). After the adjustment of the inoculum, the suspension was diluted with nutrient solution (Mueller Hinton broth, Difco) in a ratio of 1:10000. The microtiter plate was inoculated within 15 min of preparation of the inoculum. The exact colony count was determined by means of surface culture. Using the stock solution of the test compound and the nutrient medium (Mueller Hinton broth, Difco), a dilution series was prepared beforehand on the microtiter plate. […] The microtiter plates were read with the aid of a photometer at a wavelength of 590 nm by measurement of the absorption. IC80 values were subsequently calculated from the values of the dilution series according to a standard process as the concentration of the test compound which is necessary in order to inhibit the growth of the test organism Escherichia coli by 80%.

COC(CNC(=O)C(NC(=O)C(O)C(C)O)C(O)c1cncn1C)C(O)C(O)C(=O)N(C)C(Cc1ccccc1)C(=O)NCC(=O)NC(C(=O)NC(CO)C(=O)NC(C(=O)NC(CC(C)C)C(=O)NC(CO)C(=O)O)C(C)(C)O)C(C)(C)O (stereo not drawn) [formula Ia] (X1-[X2][X3][NMeF]G[ξVal(3-OH)]S[ξVal(3-OH)]LS-OH; configuration not given here)
Absorbance MIC (E. coli strain ATCC35218): 1 to 4 µg/mL

COC(CNC(=O)C(NC(=O)C(O)C(C)O)C(O)c1cncn1C)C(O)C(O)C(=O)N(C)C(Cc1ccccc1)C(=O)NC(O)C(=O)NC(C(=O)NC(CO)C(=O)NC(C(=O)NC(CC(C)C)C(=O)NC(CO)C(=O)O)C(C)(C)O)C(C)(C)O (stereo not drawn) [formula Ib] (X1-[X2][X3][NMeF][X4][ξVal(3-OH)]S[ξVal(3-OH)]LS-OH; configuration not given here)
IC80 for inhibition of Escherichia coli ATCC 35218 [1]: 0.71 µg/mL | Absorbance MIC (E. coli strain ATCC35218): 8 µg/mL
